Biological target: phosphorylated active hERK2 enzyme (Homo sapiens (Human), UniProt P28482)
Experiment: Active Human ERK2 (hERK2) Activity Assay (IMAP-FP)
Type: biochemical
Settings: Table 5, 0.5 nM hERK2, 30 μM ATP, 10 point titration, read-out: AERK2 IC50
Method: Assays Active Human ERK2 (hERK2) Activity Assay:
Activated ERK2 activity was determined in an IMAP-FP assay (Molecular Devices). […] The final reaction in each well of 25 μL consists of 0.5 nM hERK2, 900 nM unlabeled peptide, 80 nM labeled-peptide, and 30 μM ATP. Phosphorylation reactions were allowed to proceed for 60 minutes and were immediately quenched by the addition of 60 μL IMAP detection beads (1:1000 dilutions) in IMAP binding buffer (Molecular Devices) with 24 mM NaCl. Plates were read on EnVision reader after 60 minutes binding equilibration using Fluorescence Polarization protocol (Perkin Elmer).

Chain of phosphorylated active hERK2 enzyme (P28482 whole entry): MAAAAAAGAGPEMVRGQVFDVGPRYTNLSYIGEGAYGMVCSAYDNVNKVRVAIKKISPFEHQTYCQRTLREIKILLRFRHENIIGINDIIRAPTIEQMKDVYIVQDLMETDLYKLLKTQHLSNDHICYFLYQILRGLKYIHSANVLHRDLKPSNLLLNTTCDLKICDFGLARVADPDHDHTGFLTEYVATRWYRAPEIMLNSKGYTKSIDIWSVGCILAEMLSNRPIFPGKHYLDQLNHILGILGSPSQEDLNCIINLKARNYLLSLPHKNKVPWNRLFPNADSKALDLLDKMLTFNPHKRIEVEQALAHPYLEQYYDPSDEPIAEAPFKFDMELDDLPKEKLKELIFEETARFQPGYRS

`CNc1n[nH]c2cc(NC(=O)N[C@H](C)c3ccc(F)cc3)ncc12` [Example 1, 1-[(1R)-1-(4-Fluorophenyl)ethyl]-3-[3-(methylamino)-1H-pyrazolo[4,3-c]pyridin-6-yl]urea] gave an IC50 of 7.85 nM.

Work on `CCNc1n[nH]c2cc(NC(=O)N[C@H](C)c3ccccc3)ncc12` [Example 2, (R)-1-(3-(Ethylamino)-1H-pyrazolo[4,3-c]pyridin-6-yl)-3-(1-phenylethyl)urea] yielded an IC50 of 1.13 nM.

`CNc1n[nH]c2cc(NC(=O)N[C@H](C)c3ccccc3)ncc12` [Example 3, 1-[3-(methylamino)-1H-pyrazolo[4,3-c]pyridin-6-yl]-3-[(1R)-1-phenylethyl]urea] showed an IC50 of 4.87 nM.

With `CCNc1n[nH]c2cc(NC(=O)N[C@H](C)c3ccccn3)ncc12` [Example 4, 1-[3-(ethylamino)-1H-pyrazolo[4,3-c]pyridin-6-yl]-3-[(1R)-1-pyridin-2-ylethyl]urea] the IC50 was 19.5 nM.

Work on `CCNc1n[nH]c2cc(NC(=O)N[C@H](C)c3ccc(F)cc3)ncc12` [Example 5, 1-[3-(ethylamino)-1H-pyrazolo[4,3-c]pyridin-6-yl]-3-[(1R)-1-(4-fluorophenyl)ethyl]urea] yielded an IC50 of 1 nM.

`COC[C@@H](NC(=O)Nc1cc2[nH]nc(N3CC(OC)C3)c2cn1)c1ccccc1` [Example 6, 1-[3-(3-methoxyazetidin-1-yl)-1H-pyrazolo[4,3-c]pyridin-6-yl]-3-[(1S)-2-methoxy-1-phenylethyl]urea] was tested, and the IC50 was 2300 nM.

In the case of `COCCNC(=O)Nc1cc2[nH]nc(N3CC(OC)C3)c2cn1` [Example 7, 1-[3-(3-methoxyazetidin-1-yl)-1H-pyrazolo[4,3-c]pyridin-6-yl]-3-(2-methoxyethyl)urea], the IC50 is reported as 342 nM.

In the case of `COCCNC(=O)Nc1cc2[nH]nc(N3CCC3)c2cn1` [Example 8, 1-(3-azetidin-1-yl-1H-pyrazolo[4,3-c]pyridin-6-yl)-3-(2-methoxyethyl)urea], the IC50 is reported as 255 nM.

For `COCCNC(=O)Nc1cc2[nH]nc(N3CCCC3)c2cn1` [Example 9, 1-(2-methoxyethyl)-3-(3-pyrrolidin-1-yl-1H-pyrazolo[4,3-c]pyridin-6-yl)urea], the IC50 was 105 nM.

Compound `COCCN(C)c1n[nH]c2cc(NC(=O)N[C@H](C)c3ccccc3)ncc12` [Example 10, 1-{3-[(2-methoxyethyl)(methyl)amino]-1H-pyrazolo[4,3-c]pyridin-6-yl}-3-[(1R)-1-phenylethyl]urea] has an IC50 of 42.1 nM.

Compound `COC[C@@H](C)NC(=O)Nc1cc2[nH]nc(N3CCOCC3)c2cn1` [Example 11, 1-[(1R)-2-methoxy-1-methylethyl]-3-(3-morpholin-4-yl-1H-pyrazolo[4,3-c]pyridin-6-yl)urea] has an IC50 of 30 nM.

Work on `COC[C@H](C)NC(=O)Nc1cc2[nH]nc(N3CCOCC3)c2cn1` [Example 12, 1-[(1S)-2-methoxy-1-methylethyl]-3-(3-morpholin-4-yl-1H-pyrazolo[4,3-c]pyridin-6-yl)urea] yielded an IC50 of 51.6 nM.

`C[C@@H](NC(=O)Nc1cc2[nH]nc(N3CCN(C)CC3)c2cn1)c1ccccc1` [Example 13, 1-[3-(4-methylpiperazin-1-yl)-1H-pyrazolo[4,3-c]pyridin-6-yl]-3-[(1R)-1-phenylethyl]urea] gave an IC50 of 28 nM.

With `COC[C@@H](NC(=O)Nc1cc2[nH]nc(N3CCN(C)CC3)c2cn1)c1ccccc1` [Example 14, 1-[(1S)-2-methoxy-1-phenylethyl]-3-[3-(4-methylpiperazin-1-yl)-1H-pyrazolo[4,3-c]pyridin-6-yl]urea] the IC50 was 21.8 nM.

Work on `C[C@@H](NC(=O)Nc1cc2[nH]nc(N(C)C)c2cn1)c1ccc(F)cc1` [Example 15, 1-[3-(dimethylamino)-1H-pyrazolo[4,3-c]pyridin-6-yl]-3-[(1R)-1-(4-fluorophenyl)ethyl]urea] yielded an IC50 of 17.3 nM.

For `CO[C@H](C)CNC(=O)Nc1cc2[nH]nc(N3CCOCC3)c2cn1` [Example 16, 1-[(2R)-2-methoxypropyl]-3-(3-morpholin-4-yl-1H-pyrazolo[4,3-c]pyridin-6-yl)urea], the IC50 was 20.6 nM.

`CO[C@@H](C)CNC(=O)Nc1cc2[nH]nc(N3CCOCC3)c2cn1` [Example 17, 1-[(2S)-2-methoxypropyl]-3-(3-morpholin-4-yl-1H-pyrazolo[4,3-c]pyridin-6-yl)urea] was tested, and the IC50 was 11.8 nM.

`C[C@@H](NC(=O)Nc1cc2[nH]nc(N(C)C)c2cn1)c1ccccc1` [Example 19, 1-[3-(dimethylamino)-1H-pyrazolo[4,3-c]pyridin-6-yl]-3-[(1R)-1-phenylethyl]urea] showed an IC50 of 13.8 nM.

`COCCNC(=O)Nc1cc2[nH]nc(N3CCOCC3)c2cn1` [Example 20, 1-(2-methoxyethyl)-3-(3-morpholin-4-yl-1H-pyrazolo[4,3-c]pyridin-6-yl)urea] was tested, and the IC50 was 13.6 nM.

Work on `CCN(CC)c1n[nH]c2cc(NC(=O)N[C@H](COC)c3ccccc3)ncc12` [Example 21, 1-[3-(diethylamino)-1H-pyrazolo[4,3-c]pyridin-6-yl]-3-[(1S)-2-methoxy-1-phenylethyl]urea] yielded an IC50 of 10.4 nM.

`COC1CN(c2n[nH]c3cc(NC(=O)N[C@H](C)c4ccccc4)ncc23)C1` [Example 22, 1-[3-(3-methoxyazetidin-1-yl)-1H-pyrazolo[4,3-c]pyridin-6-yl]-3-[(1R)-1-phenylethyl]urea] showed an IC50 of 8.75 nM.

With `COC[C@@H](NC(=O)Nc1cc2[nH]nc(N3CCC3)c2cn1)c1ccccc1` [Example 24, 1-(3-azetidin-1-yl-1H-pyrazolo[4,3-c]pyridin-6-yl)-3-[(1S)-2-methoxy-1-phenylethyl]urea] the IC50 was 4.8 nM.

For `C[C@@H](NC(=O)Nc1cc2[nH]nc(N3CCC3)c2cn1)c1ccccc1` [Example 25, 1-(3-azetidin-1-yl-1H-pyrazolo[4,3-c]pyridin-6-yl)-3-[(1R)-1-phenylethyl]urea], the IC50 was 4.78 nM.

`COC[C@@H](NC(=O)Nc1cc2[nH]nc(N3CCOCC3C)c2cn1)c1ccccc1` (stereo partly drawn) [Example 27, 1-[(1S)-2-methoxy-1-phenylethyl]-3-[3-(3-methylmorpholin-4-yl)-1H-pyrazolo[4,3-c]pyridin-6-yl]urea] gave an IC50 of 1.2 nM.

Work on `COC[C@@H](NC(=O)Nc1cc2[nH]nc(N3CCCC3)c2cn1)c1ccccc1` [Example 28, 1-[(1S)-2-methoxy-1-phenylethyl]-3-(3-pyrrolidin-1-yl-1H-pyrazolo[4,3-c]pyridin-6-yl)urea] yielded an IC50 of 1 nM.

Compound `C[C@@H](NC(=O)Nc1cc2[nH]nc(N3CCCC3)c2cn1)c1ccccc1` [Example 29, 1-[(1R)-1-phenylethyl]-3-(3-pyrrolidin-1-yl-1H-pyrazolo[4,3-c]pyridin-6-yl)urea] has an IC50 of 0.82 nM.

`COC[C@@H](NC(=O)Nc1cc2[nH]nc(N3CCOCC3)c2cn1)c1ccccc1` [Example 30, 1-[(1S)-2-methoxy-1-phenylethyl]-3-(3-morpholin-4-yl-1H-pyrazolo[4,3-c]pyridin-6-yl)urea] gave an IC50 of 0.4 nM.

`C[C@@H](NC(=O)Nc1cc2[nH]nc(N3CCOCC3)c2cn1)c1ccc(F)cc1` [Example 31, 1-[(1R)-1-(4-fluorophenyl)ethyl]-3-(3-morpholin-4-yl-1H-pyrazolo[4,3-c]pyridin-6-yl)urea] gave an IC50 of 0.4 nM.

For `C[C@@H](NC(=O)Nc1cc2[nH]nc(N3CCOCC3)c2cn1)c1ccccc1` [Example 32, 1-(3-morpholin-4-yl-1H-pyrazolo[4,3-c]pyridin-6-yl)-3-[(1R)-1-phenylethyl]urea], the IC50 was 0.37 nM.

For `CCNc1n[nH]c2cc(NC(=O)N[C@H](C)c3ccccc3)nc(C)c12` [Example 38, 1-[3-(ethylamino)-4-methyl-1H-pyrazolo[4,3-c]pyridin-6-yl]-3-[(1R)-1-phenylethyl]urea], the IC50 was 13.9 nM.

Compound `CN1C[C@H](NC(=O)Nc2cc3[nH]nc(N4CCOCC4)c3cn2)[C@@H](c2ccccc2)C1` [Example 41, 1-[(3R,4S)-1-Methyl-4-phenylpyrrolidin-3-yl]-3-(3-morpholin-4-yl-1H-pyrazolo[4,3-c]pyridin-6-yl)urea] has an IC50 of 20.2 nM.

`CN1C[C@@H](NC(=O)Nc2cc3[nH]nc(N4CCOCC4)c3cn2)[C@H](c2ccccc2)C1` [Example 42, 1-[(3S,4R)-1-methyl-4-phenylpyrrolidin-3-yl]-3-(3-morpholin-4-yl-1H-pyrazolo[4,3-c]pyridin-6-yl)urea] was tested, and the IC50 was 0.2 nM.

`C[C@@H](NC(=O)Nc1cc2[nH]nc(N)c2cn1)c1ccc(F)cc1` [Example 44, 1-(3-amino-1H-pyrazolo[4,3-c]pyridin-6-yl)-3-[(1R)-1-(4-fluorophenyl)ethyl]urea] showed an IC50 of 2.81 nM.

`CC(=O)Nc1n[nH]c2cc(NC(=O)N[C@H](C)c3ccccc3)ncc12` [Example 47, (R)—N-(6-(3-(1-Phenylethyl)ureido)-1H-pyrazolo[4,3-c]pyridin-3-yl)acetamide] gave an IC50 of 0.66 nM.

For `CCS(=O)(=O)Nc1n[nH]c2cc(NC(=O)N[C@H](C)c3ccccc3)ncc12` [Example 50, (R)—N-(6-(3-(1-Phenylethyl)ureido)-1H-pyrazolo[4,3-c]pyridin-3-yl)ethanesulfonamide], the IC50 was 321 nM.

`C[C@@H](NC(=O)Nc1cc2[nH]nc(NS(C)(=O)=O)c2cn1)c1ccccc1` [Example 51, N-[6-({[(1R)-1-phenylethyl]carbamoyl}amino)-1H-pyrazolo[4,3-c]pyridin-3-yl]methanesulfonamide] was tested, and the IC50 was 652 nM.

With `C[C@@H](NC(=O)Nc1cc2[nH]nc(NS(=O)(=O)C3CC3)c2cn1)c1ccccc1` [Example 52, N-[6-({[(1R)-1-phenylethyl]carbamoyl}amino)-1H-pyrazolo[4,3-c]pyridin-3-yl]cyclopropanesulfonamide] the IC50 was 914 nM.

For `C[C@@H](NC(=O)Nc1cc2[nH]nc(NS(=O)(=O)C3CCC3)c2cn1)c1ccccc1` [Example 53, N-[6-({[(1R)-1-phenylethyl]carbamoyl}amino)-1H-pyrazolo[4,3-c]pyridin-3-yl]cyclobutanesulfonamide], the IC50 was 424 nM.

For `COCCS(=O)(=O)Nc1n[nH]c2cc(NC(=O)N[C@H](C)c3ccccc3)ncc12` [Example 54, 2-methoxy-N-[6-({[(1R)-1-phenylethyl]carbamoyl}amino)-1H-pyrazolo[4,3-c]pyridin-3-yl]ethanesulfonamide], the IC50 was 810 nM.
